Measurements as given in publication PMC10999543, “Identification of kinase modulators as host-directed therapeutics against intracellular methicillin-resistant Staphylococcus aureus” (Frontiers in Cellular and Infection Microbiology, 2024).
Like-named read-outs stand apart in the source and are kept apart here.

Tests used:
[1] = tested on: intracellular MRSA in HeLa cells; assay: Gentamicin protection assay with CFU count in MRSA-infected HeLa cells; format: cell-based, Staphylococcus aureus; conditions: 10 µM, MRSA-infected HeLa cells
Description: The cells were resuspended in cell culture medium without antibiotics, seeded with 10,000 cells/well into Costar flat-bottom 96-well plates (Corning, Amsterdam, the Netherlands), and were incubated overnight at 37°C/5% CO2. The next day, the bacteria were centrifuged at ≥1800 g for 15 min and resuspended in cold PBS + 5 mM ethylenediaminetetraacetic acid (EDTA). The number of CFUs present in the bacterial suspension was estimated from the optical density at 600 nm (OD600) by assuming 8x10^8 CFUs to be present in a bacterial suspension with OD600 = 1, based on prior titrations. The bacterial suspension was diluted in cell culture medium without antibiotics and added to the cells. Accuracy of the multiplicity of infection (MOI) was validated by plating serial dilutions of the MRSA inoculums on Difco TS agar plates (BD Biosciences). The calculated mean MOI throughout all experiments was 6.8 ± 4.6 (mean ± SD). Infected cells were centrifuged for 3 min at 150 g and incubated for 1 hour at 37°C/5% CO2. Next, the cells were incubated with fresh cell culture medium supplemented with 30 µg/ml gentamicin sulphate (Lonza BioWhittaker, Basel, Switzerland) for 15 min at 37°C/5% CO2 to kill residual extracellular bacteria. Infected cells were incubated overnight at 37°C/5% CO2 in cell culture medium in the presence of kinase inhibitors and 5 µg/ml gentamicin sulphate-containing medium to prevent the growth of extracellular bacteria. The solvent of the compounds, DMSO, was used at equal % v/v as a negative control. For the screen, each compound was tested in triplicate, on separate cell culture plates, resulting in triplicate values for each kinase inhibitor.
Infected cells were lysed in sterile water + 0.05% UltraPure SDS solution (Invitrogen, ThermoFisher Scientific) to release intracellular bacteria. Bacterial suspensions and lysates of cells infected with MRSA were 5-fold serially diluted and 10-μl drops were plated on square TS agar plates. The plates were left to dry and incubated overnight at 37°C/5% CO2.

HeLa cells = assay: Compound screen by flow cytometry: HeLa cell count as surrogate readout of cell viability (z-scoreHeLa); format: cell-based, human; conditions: for cell count rep 1 / z-scoreHeLa rep 1: replicate 1; for cell count rep 2 / z-scoreHeLa rep 2: replicate 2; for cell count rep 3 / z-scoreHeLa rep 3: replicate 3; for z-scoreHeLa mean: mean of 3 replicates
Outline: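 The viability surrogate was the count of fixed HeLa cells by flow cytometry, converted to z-scores against DMSO controls with values deviating two-fold excluded. Before counting, cells had been infected with MRSA for 1 h and cleared of extracellular bacteria with gentamicin. They were then exposed overnight to kinase inhibitors in triplicate.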

intracellular MRSA = format: cell-based, Staphylococcus aureus; conditions: for %GFP+ rep 1 / z-scoreMRSA+ rep 1: replicate 1; for %GFP+ rep 2 / z-scoreMRSA+ rep 2: replicate 2; for %GFP+ rep 3 / z-scoreMRSA+ rep 3: replicate 3; for z-scoreMRSA+ mean: mean of 3 replicates; for z-score GFP+: flow cytometry screen, 10 µM, HeLa cells
Outline: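 HeLa cells were infected with GFP-expressing MRSA (mean MOI 6.8) for 1 h, treated with 30 µg/ml gentamicin for 15 min, then incubated overnight at 37°C with kinase inhibitors and 5 µg/ml gentamicin. Flow cytometry gave % GFP-positive cells, with cell count as viability. Hits were z-score ≤ -2 (infection) and ≥ -3 (count) versus DMSO.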

HER4 = tested on: HER4; parameters: method as in Elkins et al., 2016; conditions: PKIS1, Caliper assay, ref Elkins et al., 2016; cited from earlier work
EGFR = tested on: EGFR; parameters: method as in Elkins et al., 2016; conditions: PKIS1, Caliper assay, ref Elkins et al., 2016; cited from earlier work
HER2 = tested on: HER2; parameters: method as in Elkins et al., 2016; conditions: PKIS1, Caliper assay, ref Elkins et al., 2016; cited from earlier work
[2] = PKIS compound screen raw data, HeLa cell count
[3] = PKIS compound screen, HeLa cell count
[4] = PKIS compound screen, Yes/No call
[5] = PKIS compounds raw data, HeLa cell count
[6] = PKIS compound screen raw data, MRSA-infected HeLa cells
[7] = PKIS compound screen, MRSA-infected HeLa cells
[8] = PKIS compound screen, Yes/No call (effect without cell death)
[9] = PKIS compounds raw data, MRSA-infected HeLa cells
[10] = compound screen, HeLa cell count
[11] = Yes/No: effect without cell death
[12] = compound screen, MRSA-infected HeLa cells

| SMILES | CFU (% of DMSO) at 10 µM [1] | cell death (HeLa cells; [4]) | z-scoreHeLa mean (HeLa cells; PKIS compound screen) | z-scoreHeLa rep 1 (HeLa cells; PKIS compound screen) | z-scoreHeLa rep 2 (HeLa cells; PKIS compound screen) | z-scoreHeLa rep 3 (HeLa cells; PKIS compound screen) | cell count rep 1 (HeLa cells; [5]) | cell count rep 2 (HeLa cells; [5]) | cell count rep 3 (HeLa cells; [5]) | effect (intracellular MRSA; [4]) | hit (intracellular MRSA; [8]) | z-scoreMRSA+ mean (intracellular MRSA; PKIS compound screen) | z-scoreMRSA+ rep 1 (intracellular MRSA; PKIS compound screen) | z-scoreMRSA+ rep 2 (intracellular MRSA; PKIS compound screen) | %GFP+ rep 1 (intracellular MRSA; [9]) | %GFP+ rep 2 (intracellular MRSA; [9]) | %GFP+ rep 3 (intracellular MRSA; [9]) | % inhibition at 1 µM HER4 (HER4) | % inhibition at 1 µM EGFR (EGFR) | % inhibition at 1 µM HER2 (HER2) | further results |
| --- | --- | --- | --- | --- | --- | --- | --- | --- | --- | --- | --- | --- | --- | --- | --- | --- | --- | --- | --- | --- | --- |
| CS(=O)(=O)CCNCc1ccc(-c2ccc3ncnc(Nc4ccc(OCc5ccccc5)c(Cl)c4)c3c2)o1 [GW574783B] | 53.4 % of DMSO | No | 1.91 | 1.69 | 1.91 | 2.13 | 8853 | 8889 | 8965 | Yes | No and Yes | -2.62 | -2.66 | -2.54 | 13.4% | 12.8% | 13.0% | 89% | 91% | 75% | cell count rep 1 (HeLa cells; [2]): 17891; cell count rep 2 (HeLa cells; [2]): 35533; cell count rep 3 (HeLa cells; [2]): 50424; z-scoreHeLa mean (HeLa cells; [3]): 0.46; z-scoreHeLa rep 1 (HeLa cells; [3]): -0.34; z-scoreHeLa rep 2 (HeLa cells; [3]): 0.14; z-scoreHeLa rep 3 (HeLa cells; [3]): 1.58; cell death (HeLa cells; PKIS compound screen, Yes/No call on z-scoreHeLa): No; %GFP+ rep 1 (intracellular MRSA; [6]): 11.2%; %GFP+ rep 2 (intracellular MRSA; [6]): 11.2%; %GFP+ rep 3 (intracellular MRSA; [6]): 14.4%; z-scoreMRSA+ mean (intracellular MRSA; [7]): -1.99; z-scoreMRSA+ rep 1 (intracellular MRSA; [7]): -2.11; z-scoreMRSA+ rep 2 (intracellular MRSA; [7]): -2.20; z-scoreMRSA+ rep 3 (intracellular MRSA; [7]): -1.64; effect (intracellular MRSA; PKIS compound screen, Yes/No call on z-scoreMRSA+): No; z-scoreMRSA+ rep 3 (intracellular MRSA; PKIS compound screen): -2.65; z-score GFP+ (intracellular MRSA): -2.30 |
| [O-][S+]1CCN(Cc2ccc(-c3ccc4ncnc(Nc5ccc(OCc6ccccc6)c(F)c5)c4c3)o2)CC1 [GW576924A] | 137.9 % of DMSO | No | -0.58 | -1.18 | -0.60 | 0.0442 | 3467 | 3479 | 7054 | Yes | Yes | -2.35 | -1.94 | -2.43 | 7.1% | 6.2% | 6.8% | 75% | 82% | 91% | z-scoreMRSA+ rep 3 (intracellular MRSA; PKIS compound screen): -2.70; z-score GFP+ (intracellular MRSA): -2.36 |
| CCCN(CCS(C)(=O)=O)Cc1ccc(-c2ccc3ncnc(Nc4ccc(OCc5cccc(F)c5)c(Cl)c4)c3c2)o1 [GW621823A] | 68.4 % of DMSO | No | 0.59 | 0.17 | 0.58 | 1.02 | 4961 | 5042 | 9090 | Yes | Yes | -2.21 | -2.10 | -1.86 | 6.6% | 7.9% | 6.9% | 79% | 78% | 82% | z-scoreMRSA+ rep 3 (intracellular MRSA; PKIS compound screen): -2.67 |
| CS(=O)(=O)CCNCc1ccc(-c2ccc3ncnc(Nc4ccc(OCc5ccccc5)c(Br)c4)c3c2)o1 [GW580496A] | 65.3 % of DMSO | – | – | – | – | – | 5658 | 6483 | 11366 | – | – | – | – | – | 5.4% | 6.0% | 5.1% | 80% | 82% | 74% | cell death (HeLa cells; Yes/No call from z-scoreHeLa): No; z-scoreHeLa mean (HeLa cells; [10]): 1.53; z-scoreHeLa rep 1 (HeLa cells; [10]): 0.80; z-scoreHeLa rep 2 (HeLa cells; [10]): 1.67; z-scoreHeLa rep 3 (HeLa cells; [10]): 2.11; effect (intracellular MRSA; Yes/No call from z-scoreMRSA+): Yes; hit (intracellular MRSA; [11]): Yes; z-scoreMRSA+ mean (intracellular MRSA; [12]): -2.73; z-scoreMRSA+ rep 1 (intracellular MRSA; [12]): -2.50; z-scoreMRSA+ rep 2 (intracellular MRSA; [12]): -2.51; z-scoreMRSA+ rep 3 (intracellular MRSA; [12]): -3.18 |
| CS(=O)(=O)CCN(CC#N)Cc1ccc(-c2ccc3ncnc(Nc4ccc(OCc5cccc(F)c5)c(Cl)c4)c3c2)o1 [GW616030X] | 50.3 % of DMSO | – | – | – | – | – | 2826 | 3932 | 5918 | – | – | – | – | – | 7.5% | 7.4% | 6.2% | 74% | 77% | 67% | cell death (HeLa cells; Yes/No call from z-scoreHeLa): No; z-scoreHeLa mean (HeLa cells; [10]): -0.84; z-scoreHeLa rep 1 (HeLa cells; [10]): -1.76; z-scoreHeLa rep 2 (HeLa cells; [10]): -0.25; z-scoreHeLa rep 3 (HeLa cells; [10]): -0.50; effect (intracellular MRSA; Yes/No call from z-scoreMRSA+): Yes; hit (intracellular MRSA; [11]): Yes; z-scoreMRSA+ mean (intracellular MRSA; [12]): -2.24; z-scoreMRSA+ rep 1 (intracellular MRSA; [12]): -1.82; z-scoreMRSA+ rep 2 (intracellular MRSA; [12]): -2.03; z-scoreMRSA+ rep 3 (intracellular MRSA; [12]): -2.88 |
